Reference: ChEMBL document CHEMBL2074415, “Expression and characterization of a functional rat liver Na+ bile acid cotransport system in COS-7 cells” (Am J Physiol, 1994)

Legend:
Assay type in all cases: functional, cell-based
Conditions in all cases: monkey, cos-7, 100 µM
[1] = target: T1, Hepatic sodium/bile acid cotransporter (Rattus norvegicus, UniProt P26435); assay: TP_TRANSPORTER: inhibition of Taurocholate uptake (Taurocholate: 5 uM, UDCA: 100 uM) in Ntcp-expressing COS-7 cells
T1 sequence (P26435 whole entry): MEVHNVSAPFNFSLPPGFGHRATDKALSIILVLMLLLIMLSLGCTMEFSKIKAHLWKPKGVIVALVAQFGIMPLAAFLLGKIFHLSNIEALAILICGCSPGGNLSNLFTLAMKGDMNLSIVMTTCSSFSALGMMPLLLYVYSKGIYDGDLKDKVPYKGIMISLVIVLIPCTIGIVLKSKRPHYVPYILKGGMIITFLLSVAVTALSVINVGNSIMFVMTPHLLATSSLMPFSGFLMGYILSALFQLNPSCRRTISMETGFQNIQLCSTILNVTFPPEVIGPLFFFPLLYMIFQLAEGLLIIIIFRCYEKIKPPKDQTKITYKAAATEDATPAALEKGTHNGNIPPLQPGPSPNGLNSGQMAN

[2] = target: T1, Hepatic sodium/bile acid cotransporter; assay: TP_TRANSPORTER: inhibition of Taurocholate uptake (Taurocholate: 5 uM, TUDC: 100 uM) in Ntcp-expressing COS-7 cells
[3] = target: T1, Hepatic sodium/bile acid cotransporter; assay: TP_TRANSPORTER: inhibition of Taurocholate uptake (Taurocholate: 5 uM, CDCA: 100 uM) in Ntcp-expressing COS-7 cells

How did the Activity [1] turn out when C[C@H](CCC(=O)O)[C@H]1CC[C@H]2[C@@H]3[C@@H](O)C[C@@H]4C[C@H](O)CC[C@]4(C)[C@H]3CC[C@]12C [URSODIOL] was run?
Its Activity is “inhibitor [(at a rough estimate) 45 % of control]”.

For C[C@H](CCC(=O)NCCS(=O)(=O)O)[C@H]1CC[C@H]2[C@@H]3[C@@H](O)C[C@@H]4C[C@H](O)CC[C@]4(C)[C@H]3CC[C@]12C [TAURURSODIOL], which Activity [2] is on record?
The Activity was “inhibitor [(at a rough estimate) 25 % of control]”.

For C[C@H](CCC(=O)O)[C@H]1CC[C@H]2[C@@H]3[C@H](O)C[C@@H]4C[C@H](O)CC[C@]4(C)[C@H]3CC[C@]12C [CHENODIOL], which Activity [3] is on record?
The Activity was “inhibitor [(at a rough estimate) 25 % of control]”.
